Measured values as given in ChEMBL document CHEMBL4020788, “Synthesis, SAR and molecular docking studies of benzo[d]thiazole-hydrazones as potential antibacterial and antifungal agents” (2017).
Calls of active or inactive are those of the source. No cut-off for these calls is given here.

Key:
Type in all cases: functional
Fusarium verticillioides [1] = assay: Antifungal activity against Fusarium moniliforme at 75 ug/ml after 48 hrs by agar well diffusion method
Fusarium oxysporum [2] = assay: Antifungal activity against Fusarium oxysporum at 100 ug/ml after 48 hrs by agar well diffusion method; conditions: for zone of inhibition at 100 µg/mL: read-out: DIZ
Aspergillus niger [3] = assay: Antifungal activity against Aspergillus niger at 50 ug/ml after 48 hrs by agar well diffusion method
Staphylococcus aureus [4] = assay: Antibacterial activity against methicillin resistant Staphylococcus aureus MRSA090 at 25 ug/ml after 24 hrs by agar well diffusion method
Staphylococcus aureus [5] = assay: Antibacterial activity against methicillin resistant Staphylococcus aureus MRSA090 at 75 ug/ml after 24 hrs by agar well diffusion method
Fusarium verticillioides [6] = assay: Antifungal activity against Fusarium moniliforme at 25 ug/ml after 48 hrs by agar well diffusion method
Bacillus subtilis [7] = assay: Antibacterial activity against Bacillus subtilis at 100 ug/ml after 24 hrs by agar well diffusion method; conditions: for zone of inhibition at 100 µg/mL: read-out: DIZ
Staphylococcus aureus [8] = assay: Antibacterial activity against Staphylococcus aureus at 75 ug/ml after 24 hrs by agar well diffusion method
Staphylococcus aureus [9] = assay: Antibacterial activity against methicillin resistant Staphylococcus aureus MRSA090 at 50 ug/ml after 24 hrs by agar well diffusion method
Staphylococcus aureus [10] = assay: Antibacterial activity against Staphylococcus aureus at 25 ug/ml after 24 hrs by agar well diffusion method
Aspergillus niger [11] = assay: Antifungal activity against Aspergillus niger at 25 ug/ml after 48 hrs by agar well diffusion method
Fusarium verticillioides [12] = assay: Antifungal activity against Fusarium moniliforme at 50 ug/ml after 48 hrs by agar well diffusion method
Klebsiella pneumoniae [13] = assay: Antibacterial activity against Klebsiella pneumoniae at 100 ug/ml after 24 hrs by agar well diffusion method
Staphylococcus aureus [14] = assay: Antibacterial activity against methicillin resistant Staphylococcus aureus MRSA090 at 100 ug/ml after 24 hrs by agar well diffusion method
Klebsiella pneumoniae [15] = assay: Antibacterial activity against Klebsiella pneumoniae at 75 ug/ml after 24 hrs by agar well diffusion method
Fusarium verticillioides [16] = assay: Antifungal activity against Fusarium moniliforme at 100 ug/ml after 48 hrs by agar well diffusion method
Escherichia coli [17] = assay: Antibacterial activity against Escherichia coli at 25 ug/ml after 24 hrs by agar well diffusion method
Bacillus subtilis [18] = assay: Antibacterial activity against Bacillus subtilis at 50 ug/ml after 24 hrs by agar well diffusion method; conditions: for zone of inhibition at 50 µg/mL: read-out: DIZ
Staphylococcus aureus [19] = assay: Antibacterial activity against Staphylococcus aureus at 100 ug/ml after 24 hrs by agar well diffusion method
Klebsiella pneumoniae [20] = assay: Antibacterial activity against Klebsiella pneumoniae at 25 ug/ml after 24 hrs by agar well diffusion method
Fusarium oxysporum [21] = assay: Antifungal activity against Fusarium oxysporum at 25 ug/ml after 48 hrs by agar well diffusion method
Klebsiella pneumoniae [22] = assay: Antibacterial activity against Klebsiella pneumoniae at 50 ug/ml after 24 hrs by agar well diffusion method
Fusarium oxysporum [23] = assay: Antifungal activity against Fusarium oxysporum at 75 ug/ml after 48 hrs by agar well diffusion method; conditions: for zone of inhibition at 75 µg/mL: read-out: DIZ
Staphylococcus aureus [24] = assay: Antibacterial activity against Staphylococcus aureus at 50 ug/ml after 24 hrs by agar well diffusion method
Bacillus subtilis [25] = assay: Antibacterial activity against Bacillus subtilis at 25 ug/ml after 24 hrs by agar well diffusion method; conditions: for zone of inhibition at 25 µg/mL: read-out: DIZ
Escherichia coli [26] = assay: Antibacterial activity against Escherichia coli at 100 ug/ml after 24 hrs by agar well diffusion method; conditions: for zone of inhibition at 100 µg/mL: read-out: DIZ
Aspergillus niger [27] = assay: Antifungal activity against Aspergillus niger at 100 ug/ml after 48 hrs by agar well diffusion method
Escherichia coli [28] = assay: Antibacterial activity against Escherichia coli at 50 ug/ml after 24 hrs by agar well diffusion method
Aspergillus niger [29] = assay: Antifungal activity against Aspergillus niger at 75 ug/ml after 48 hrs by agar well diffusion method
Fusarium oxysporum [30] = assay: Antifungal activity against Fusarium oxysporum at 50 ug/ml after 48 hrs by agar well diffusion method; conditions: for zone of inhibition at 50 µg/mL: read-out: DIZ
Bacillus subtilis [31] = assay: Antibacterial activity against Bacillus subtilis at 75 ug/ml after 24 hrs by agar well diffusion method; conditions: for zone of inhibition at 75 µg/mL: read-out: DIZ
Escherichia coli [32] = assay: Antibacterial activity against Escherichia coli at 75 ug/ml after 24 hrs by agar well diffusion method; conditions: for zone of inhibition at 75 µg/mL: read-out: DIZ

## Cc1cccc2nc(N/N=C/CC(C)C)sc12
Fusarium verticillioides [1]
  diameter of the inhibition zone (DIZ): inactive
Fusarium oxysporum [2]
  diameter of the inhibition zone (DIZ): inactive
Aspergillus niger [3]
  diameter of the inhibition zone (DIZ): inactive
Staphylococcus aureus [4]
  diameter of the inhibition zone (DIZ): inactive
Staphylococcus aureus [5]
  diameter of the inhibition zone (DIZ): inactive
Fusarium verticillioides [6]
  diameter of the inhibition zone (DIZ): inactive
Bacillus subtilis [7]
  diameter of the inhibition zone (DIZ): inactive
Staphylococcus aureus [8]
  diameter of the inhibition zone (DIZ): inactive
Staphylococcus aureus [9]
  diameter of the inhibition zone (DIZ): inactive
Staphylococcus aureus [10]
  diameter of the inhibition zone (DIZ): inactive
Aspergillus niger [11]
  diameter of the inhibition zone (DIZ): inactive
Fusarium verticillioides [12]
  diameter of the inhibition zone (DIZ): inactive
Klebsiella pneumoniae [13]
  diameter of the inhibition zone (DIZ): inactive
Staphylococcus aureus [14]
  diameter of the inhibition zone (DIZ): inactive
Klebsiella pneumoniae [15]
  diameter of the inhibition zone (DIZ): inactive
Fusarium verticillioides [16]
  diameter of the inhibition zone (DIZ): inactive
Escherichia coli [17]
  diameter of the inhibition zone (DIZ): inactive
Bacillus subtilis [18]
  diameter of the inhibition zone (DIZ): inactive
Staphylococcus aureus [19]
  diameter of the inhibition zone (DIZ): inactive
Klebsiella pneumoniae [20]
  diameter of the inhibition zone (DIZ): inactive
Fusarium oxysporum [21]
  diameter of the inhibition zone (DIZ): inactive
Klebsiella pneumoniae [22]
  diameter of the inhibition zone (DIZ): inactive
Fusarium oxysporum [23]
  diameter of the inhibition zone (DIZ): inactive
Staphylococcus aureus [24]
  diameter of the inhibition zone (DIZ): inactive
Bacillus subtilis [25]
  diameter of the inhibition zone (DIZ): inactive
Escherichia coli [26]
  diameter of the inhibition zone (DIZ): inactive
Aspergillus niger [27]
  diameter of the inhibition zone (DIZ): inactive
Escherichia coli [28]
  diameter of the inhibition zone (DIZ): inactive
Aspergillus niger [29]
  diameter of the inhibition zone (DIZ): inactive
Fusarium oxysporum [30]
  diameter of the inhibition zone (DIZ): inactive
Bacillus subtilis [31]
  diameter of the inhibition zone (DIZ): inactive
Escherichia coli [32]
  diameter of the inhibition zone (DIZ): inactive

## Cc1cccc2nc(N/N=C/c3ccccc3)sc12
Fusarium verticillioides [1]
  diameter of the inhibition zone (DIZ): inactive
Fusarium oxysporum [2]
  zone of inhibition at 100 µg/mL: 16 mm
Aspergillus niger [3]
  diameter of the inhibition zone (DIZ): inactive
Staphylococcus aureus [4]
  diameter of the inhibition zone (DIZ): inactive
Staphylococcus aureus [5]
  diameter of the inhibition zone (DIZ): inactive
Fusarium verticillioides [6]
  diameter of the inhibition zone (DIZ): inactive
Bacillus subtilis [7]
  zone of inhibition at 100 µg/mL: 13 mm
Staphylococcus aureus [8]
  diameter of the inhibition zone (DIZ): inactive
Staphylococcus aureus [9]
  diameter of the inhibition zone (DIZ): inactive
Staphylococcus aureus [10]
  diameter of the inhibition zone (DIZ): inactive
Aspergillus niger [11]
  diameter of the inhibition zone (DIZ): inactive
Fusarium verticillioides [12]
  diameter of the inhibition zone (DIZ): inactive
Klebsiella pneumoniae [13]; read-out: DIZ
  zone of inhibition at 100 µg/mL: 10 mm
Staphylococcus aureus [14]
  diameter of the inhibition zone (DIZ): inactive
Klebsiella pneumoniae [15]; read-out: DIZ
  zone of inhibition at 75 µg/mL: 7 mm
Fusarium verticillioides [16]
  diameter of the inhibition zone (DIZ): inactive
Escherichia coli [17]; read-out: DIZ
  zone of inhibition at 25 µg/mL: 9 mm
Bacillus subtilis [18]
  zone of inhibition at 50 µg/mL: 7 mm
Staphylococcus aureus [19]
  diameter of the inhibition zone (DIZ): inactive
Klebsiella pneumoniae [20]
  diameter of the inhibition zone (DIZ): inactive
Fusarium oxysporum [21]; read-out: DIZ
  zone of inhibition at 25 µg/mL: 4 mm
Klebsiella pneumoniae [22]
  diameter of the inhibition zone (DIZ): inactive
Fusarium oxysporum [23]
  zone of inhibition at 75 µg/mL: 13 mm
Staphylococcus aureus [24]
  diameter of the inhibition zone (DIZ): inactive
Bacillus subtilis [25]
  zone of inhibition at 25 µg/mL: 5 mm
Escherichia coli [26]
  zone of inhibition at 100 µg/mL: 15 mm
Aspergillus niger [27]
  diameter of the inhibition zone (DIZ): inactive
Escherichia coli [28]; read-out: DIZ
  zone of inhibition at 50 µg/mL: 11 mm
Aspergillus niger [29]
  diameter of the inhibition zone (DIZ): inactive
Fusarium oxysporum [30]
  zone of inhibition at 50 µg/mL: 8 mm
Bacillus subtilis [31]
  zone of inhibition at 75 µg/mL: 11 mm
Escherichia coli [32]
  zone of inhibition at 75 µg/mL: 13 mm

## Cc1cccc2nc(N/N=C/c3ccc(Cl)cc3)sc12
Fusarium verticillioides [1]; read-out: DIZ
  zone of inhibition at 75 µg/mL: 20 mm
Fusarium oxysporum [2]
  zone of inhibition at 100 µg/mL: 17 mm
Aspergillus niger [3]; read-out: DIZ
  zone of inhibition at 50 µg/mL: 13 mm
Staphylococcus aureus [4]; MRSA090, 24 h, read-out: DIZ
  zone of inhibition at 25 µg/mL: 4 mm
Staphylococcus aureus [5]; MRSA090, 24 h, read-out: DIZ
  zone of inhibition at 75 µg/mL: 12 mm
Fusarium verticillioides [6]; read-out: DIZ
  zone of inhibition at 25 µg/mL: 11 mm
Bacillus subtilis [7]
  zone of inhibition at 100 µg/mL: 14 mm
Staphylococcus aureus [8]; read-out: DIZ
  zone of inhibition at 75 µg/mL: 11 mm
Staphylococcus aureus [9]; MRSA090, 24 h, read-out: DIZ
  zone of inhibition at 50 µg/mL: 9 mm
Staphylococcus aureus [10]; read-out: DIZ
  zone of inhibition at 25 µg/mL: 5 mm
Aspergillus niger [11]; read-out: DIZ
  zone of inhibition at 25 µg/mL: 8 mm
Fusarium verticillioides [12]; read-out: DIZ
  zone of inhibition at 50 µg/mL: 14 mm
Klebsiella pneumoniae [13]
  diameter of the inhibition zone (DIZ): inactive
Staphylococcus aureus [14]; MRSA090, 24 h, read-out: DIZ
  zone of inhibition at 100 µg/mL: 15 mm
Klebsiella pneumoniae [15]
  diameter of the inhibition zone (DIZ): inactive
Fusarium verticillioides [16]; read-out: DIZ
  zone of inhibition at 100 µg/mL: 26 mm
Escherichia coli [17]
  diameter of the inhibition zone (DIZ): inactive
Bacillus subtilis [18]
  zone of inhibition at 50 µg/mL: 9 mm
Staphylococcus aureus [19]; read-out: DIZ
  zone of inhibition at 100 µg/mL: 13 mm
Klebsiella pneumoniae [20]
  diameter of the inhibition zone (DIZ): inactive
Klebsiella pneumoniae [22]
  diameter of the inhibition zone (DIZ): inactive
Fusarium oxysporum [23]
  zone of inhibition at 75 µg/mL: 14 mm
Staphylococcus aureus [24]; read-out: DIZ
  zone of inhibition at 50 µg/mL: 9 mm
Bacillus subtilis [25]
  zone of inhibition at 25 µg/mL: 7 mm
Escherichia coli [26]
  zone of inhibition at 100 µg/mL: 10 mm
Aspergillus niger [27]; read-out: DIZ
  zone of inhibition at 100 µg/mL: 19 mm
Escherichia coli [28]
  diameter of the inhibition zone (DIZ): inactive
Aspergillus niger [29]; read-out: DIZ
  zone of inhibition at 75 µg/mL: 16 mm
Fusarium oxysporum [30]
  zone of inhibition at 50 µg/mL: 11 mm
Bacillus subtilis [31]
  zone of inhibition at 75 µg/mL: 11 mm
Escherichia coli [32]
  zone of inhibition at 75 µg/mL: 6 mm
